Experiments:
[1] = system: G9a; assay: In vitro methylation of ERα peptides by G9a, mass spectrometry; format: biochemical, human; conditions: 1 μg peptide, pH 8.0, 30 °C, 4 h
[2] = system: G9a; assay: In vitro methylation of ERα protein fragments by G9a; format: biochemical, human; conditions: 2 μg G9a, 2 μg substrate, 3H-S-adenosylmethionine, pH 8.0, 30 °C, 4 h; autoradiography
Description: Complementary DNA encoding full-length human ERα, G9a, PHF20 and NCOA2 genes were cloned into pENTR3C and subsequently cloned into destination vectors using the Gateway technique (Invitrogen). The destination vectors used in this study include p3Flag and pCAG-Flag (for Flag-tag expression), pCAG-Myc (for Myc-tag expression) and pCAG (for no-tag expression). pERE-Luc Firefly luciferase and pRl-TK Renilla luciferase were used for the reporter assays. For in vitro enzymatic assays, G9a, ERα, ERα fragments and mutants were cloned into pGEX-6P1 (GE Healthcare) to express and purify the proteins as GST-tagged proteins. Point mutations were generated using site-directed mutagenesis (Stratagene). shRNA constructs were purchased from Sigma. The G9a-targeting shRNA sequences used in this study were 5′-[…]-3′, 5′-[…]-3′ and 5′-[…]-3′ and the PHF20-targeting shRNA sequences were 5′-[…]-3′ and 5′-[…]-3′. Peptides were synthesized at the W.M. Keck Facility at Yale University or at CPC-Scientific. Polyclonal anti-dimethylated ERαK235 rabbit sera (CPC Scientific, 1:500) were affinity-purified with an ERαK235me2 peptide and depleted against the corresponding unmethylated peptide. Anti-G9a antibodies were purchased from MBL (D141-3, 1:1,000) and Sigma (G6919, 1:2,000); anti-PHF20 (3934S, 1:1,000) antibody from Cell Signaling; anti-ERα (Sc-503, 1:1,000) and anti-GST (Sc-459, 1:1,000) antibodies from Santa Cruz; anti-FLAG (F-1804, 1:5,000) and anti-tubulin (T8328, 1:5,000) antibodies from Sigma; anti-H4K16ac (07–329, 1:1,000) antibody from Millipore; anti-total H3 (ab1791, 1:5,000) and anti-H3K9me2 (ab1220, 1:1,000) antibodies from Abcam; and streptavidin horseradish peroxidase from Thermo Scientific. 17β-estradiol and the G9a inhibitor BIX-01294 were purchased from Sigma.
The pGEX constructs encoding human G9a, ERα and ERα fragments including AF1 (aa 1–190), DBD (aa 175–250), hinge (aa 251–310), DBD+hinge (aa 175–310), LBD (aa 305–596) and the second Tudor domain of PHF20 (aa 58–148) were expressed in E. coli Rosetta (DE3) pLysS cells. After induction with IPTG (0.5 mM) for 16–18 h at 18 °C, cells were collected by centrifugation at 5,000g, lysed by sonication and purified using Glutathione Sepharose 4B beads (GE Healthcare). […]
Recombinant G9a (2 μg) was incubated with recombinant ERα fragments proteins (2 μg) in methylation assay buffer (50 mM Tris-HCl, pH 8.0, 10% glycerol, 20 mM KCl, 5 mM MgCl2, 1 mM DTT, 1 mM PMSF and 0.1 mM unlabelled or ^3H-labelled S-adenosylmethionine (GE Healthcare)) at 30 °C for 4 h. Reactions were stopped by adding SDS–PAGE sample buffer, and the methylation status was determined by autoradiography or western blotting analysis. […]

[3] = system: PHF20 Tudor; assay: 1H,15N HSQC NMR titration of PHF20 Tudor; format: binding, human; conditions: 0.2 mM 15N-labelled PHF20 Tudor, 25 mM Tris-HCl pH 7.5, 150 mM NaCl, 298 K, 600 MHz
Protocol: The pGEX constructs encoding human G9a, ERα and ERα fragments including AF1 (aa 1–190), DBD (aa 175–250), hinge (aa 251–310), DBD+hinge (aa 175–310), LBD (aa 305–596) and the second Tudor domain of PHF20 (aa 58–148) were expressed in E. coli Rosetta (DE3) pLysS cells. After induction with IPTG (0.5 mM) for 16–18 h at 18 °C, cells were collected by centrifugation at 5,000g, lysed by sonication and purified using Glutathione Sepharose 4B beads (GE Healthcare). For the NMR titration assays, PHF20 Tudor was expressed in the ^15NH4Cl-supplemented (Sigma) minimal media, and the GST tag was cleaved with PreScission protease, and the cleaved protein was concentrated using Millipore concentrators (Millipore).
The ^1H,^15N HSQC spectra of 0.2 mM uniformly ^15N-labelled PHF20 Tudor (in 25 mM Tris-HCl, pH 7.5 buffer, 150 mM NaCl, 5 mM dithiothreitol and ∼8% D2O) were collected at 298 K on a Varian INOVA 600 MHz spectrometer. Binding was monitored by titrating unmodified ERα and ERαK235me2 peptides (aa 228–239) against the PHF20 Tudor domain. NMR data were processed and analysed with NMRPipe and NMRDraw as previously described. NMR assignments for PHF20 Tudor were taken from the Biological Magnetic Resonance Data Bank (BMRB 17673)[31].

ERα peptide containing K235: ERα peptide spanning amino acids 227–244, G9a substrate (CTIDKNRRKSCQACRLRK; UniProt P03372 227-244, looked up, fragment)
increase in mass on G9a methylation [1]: 28 Da

hinge region: recombinant ERα hinge fragment (aa 251–310) (MKGGIRKDRRGGRMLKHKRQRDDGEGRGEVGSAGDMRAANLWPSPLMIKRSKKNSLALSL; UniProt P03372 251-310, looked up, fragment)
methylation by G9a [2]: methylated both the DBD and the hinge region

peptide containing K303: ERα peptide spanning amino acids 294–313, G9a substrate (SPLMIKRSKKNSLALSLTAD; UniProt P03372 294-313, looked up, fragment)
increase in mass on G9a methylation [1]: 14 Da

unmethylated ERα (aa 228–239) peptide: unmodified ERα peptide (aa 228–239) (TIDKNRRKSCQA)
chemical shift changes of PHF20 Tudor [3]: no resonance perturbations were observed

B1: AF-1: recombinant ERα N-terminal activation function domain (aa 1–190) (protein, UniProt P03372 1-190, looked up, fragment)
chain: MTMTLHTKASGMALLHQIQGNELEPLNRPQLKIPLERPLGEVYLDSSKPAVYNYPEGAAYEFNAAAAANAQVYGQTGLPYGPGSEAAAFGSNGLGGFPPLNSVSPSPLMLLHPPPQLSPFLQPHGQQVPYYLENEPSGYTVREAGPPAFYRPNSDNRRQGGRERLASTNDKGSMAMESAKETRYCAVCND
methylation by G9a [2]: not the AF-1 and LBD fragments

B2: DBD: recombinant ERα DNA-binding domain (aa 175–250) (protein, UniProt P03372 175-250, looked up, fragment)
chain: AMESAKETRYCAVCNDYASGYHYGVWSCEGCKAFFKRSIQGHNDYMCPATNQCTIDKNRRKSCQACRLRKCYEVGM
methylation by G9a [2]: methylated both the DBD and the hinge region

B3: DBD and hinge fragment: recombinant ERα fragment DBD+hinge (aa 175–310) (protein, UniProt P03372 175-310, looked up, fragment)
chain: AMESAKETRYCAVCNDYASGYHYGVWSCEGCKAFFKRSIQGHNDYMCPATNQCTIDKNRRKSCQACRLRKCYEVGMMKGGIRKDRRGGRMLKHKRQRDDGEGRGEVGSAGDMRAANLWPSPLMIKRSKKNSLALSL
methylation by G9a [2]: specifically methylated

Source: publication PMC4792926, “G9a-mediated methylation of ERα links the PHF20/MOF histone acetyltransferase complex to hormonal gene expression” (Nature Communications, 2016)
